Results reported in ChEMBL document CHEMBL6120963, “Discovery of Novel PROTAC SIRT6 Degraders with Potent Efficacy against Hepatocellular Carcinoma” (J Med Chem, 2024).

Legend:
SK-HEP1 = assay: Antitumor activity against human SK-HEP1 cells xenografted in BALB/c nude mouse at 25 mg/kg treated for 28 to 30 days relative to control; format: functional; settings: time 28-30 day
[1] = Toxicity in BALB/c nude mouse xenografted with human SK-HEP1 cells assessed as body weight loss at 25 mg/kg treated for 28 to 30 days; format: organism-based; settings: in vivo, time 28-30 day
[2] = Toxicity in BALB/c nude mouse xenografted with human SK-HEP1 cells assessed as pathological damage in heart at 25 mg/kg treated for 28 to 30 days by H and E staining based analysis; format: organism-based; settings: in vivo, time 28-30 day
[3] = Toxicity in BALB/c nude mouse xenografted with human SK-HEP1 cells assessed as pathological damage in liver at 25 mg/kg treated for 28 to 30 days by H and E staining based analysis; format: organism-based; settings: in vivo, time 28-30 day
[4] = Toxicity in BALB/c nude mouse xenografted with human SK-HEP1 cells assessed as pathological damage in spleen at 25 mg/kg treated for 28 to 30 days by H and E staining based analysis; format: organism-based; settings: in vivo, time 28-30 day
[5] = Toxicity in BALB/c nude mouse xenografted with human SK-HEP1 cells assessed as pathological damage in lungs at 25 mg/kg treated for 28 to 30 days by H and E staining based analysis; format: organism-based; settings: in vivo, time 28-30 day
[6] = Toxicity in BALB/c nude mouse xenografted with human SK-HEP1 cells assessed as pathological damage in kidney at 25 mg/kg treated for 28 to 30 days by H and E staining based analysis; format: organism-based; settings: in vivo, time 28-30 day
[7] = Toxicity in BALB/c nude mouse xenografted with human SK-HEP1 cells assessed as histopathological abnormalities in heart at 25 mg/kg treated for 28 to 30 days by H and E staining based analysis; format: organism-based; settings: in vivo, time 28-30 day
[8] = Toxicity in BALB/c nude mouse xenografted with human SK-HEP1 cells assessed as histopathological abnormalities in spleen at 25 mg/kg treated for 28 to 30 days by H and E staining based analysis; format: organism-based; settings: in vivo, time 28-30 day
[9] = Toxicity in BALB/c nude mouse xenografted with human SK-HEP1 cells assessed as histopathological abnormalities in lungs at 25 mg/kg treated for 28 to 30 days by H and E staining based analysis; format: organism-based; settings: in vivo, time 28-30 day

CNC(=O)c1cc(Oc2ccc(NC(=O)Nc3ccc(Cl)c(C(F)(F)F)c3)cc2)ccn1 [SORAFENIB]
Toxic: Activity [1]
35.4%: T/C (SK-HEP1)
Non-toxic: Activity [2] | Activity [3] | Activity [4] | Activity [5] | Activity [6] | Activity [7] | Activity [8] | Activity [9]
